# “Also recorded” adds a separate entry of the source.
# How the values were obtained:
# B cells, T cells = details: cited from earlier work
# [1] = system: TNF sensitive mouse fibroblast L-929 cell line; assay: TNF-α mediated cytotoxicity on TNF-sensitive L-929 fibroblast cell line (MTT assay); format: cell-based
# Description: FIG. 7: Effect of berberine on TNF-α mediated cytotoxicity on TNF sensitive mouse fibroblast L-929 cell line.
# Effect of Berberine on TNF-α mediated cytotoxicity was evaluated using TNF-sensitive L-929 fibroblast cell line. L-929 cells were plated at a concentration of 5×10^4 cells/well in a 96-well flat bottom plate in a volume of 100 μl. The cells were incubated at 37° C. for 16-18 hrs. Different concentrations of TNF-α, with and without different doses of berberine, were added to the cultures. The cells were then incubated for additional 15 hrs and cytotoxity was measured by MTT assay.
# [2] = system: ICAM-1 on endothelial cell line (send. 1); assay: TNF-α induced ICAM-1 expression on endothelial cell line (send. 1), flowcytometric analysis; format: cell-based
# Text: FIG. 5: Effect of berberine pretreatment on expression of TNF-α induced ICAM-1 expression on endothelial cell line (send. 1), in vitro. […] (Flowcytometric analysis using anti-ICAM 1 antibody—FITC conjugate). The black line represents background level of ICAM expression, the red line represents induced level of ICAM following TNF stimulation and the green line represents TNF-α induced ICAM-1 expression after treatment for different duration.
# FIG. 6: Effect of berberine pretreatment (dose response) on expression of TNF-α induced ICAM-1 expression on endothelial cell line (send. 1), in vitro. […] (Flowcytometric analysis using anti-ICAM 1 antibody—FITC conjugate). The black line represents background level of ICAM-1 expression, the red line represents induced level of ICAM following TNF stimulation and the green line represents the TNF-α induced ICAM induced ICAM expression after treatment with different doses of berberine.
# Shifting of this curve to the left indicates the lower amount of expression of ICAM-1.
# Effect of berberine for various duration ranging from 1, 6, 12 and 24 hours on the expression of ICAM-1 on the endothelial cell line (send. 1) in response to a combination of recombinant TNF-α and IFN-γ was analyzed using flowcytometer after staining with FITC labeled anti-CD 54 (ICAM-1) antibody.
# [3] = system: attachment of neutrophils to endothelial lining of the glomerular capillaries; assay: Neutrophil attachment to endothelial lining in kidney of endotoxin-challenged mice (electron microscopy); format: in vivo, BALB/C mice
# Description: FIG. 1: Electron micrograph of kidney from a mouse challenged with endotoxin (LPS: 500 ug)) showing attachment of neutrophils with endothelial cells of glomerular capillary. Degenerative changes in surrounding tissue are shown.
# FIG. 2: Electron micrograph of kidney from a mouse treated with a dose of berberine of 10 mg/kg followed 24 hours later by endotoxin (LPS 500 ug).
# BALB/C mice were treated with berberine (1, 5, 10 or 20 ug/kg body weight) intraperitoneally and challenged 24 hours later with lethal dose of endotoxin. Kidneys were removed after 3, 6 and 12 hours after endotoxin challenge and the tissue samples was fixed and processed for electron microscopy.
# ICAM-1 = ICAM-1 expression on vascular endothelium of LPS-challenged mice (immunocytochemical localization); format: in vivo, BALB/C mice; details: berberine intraperitoneally 24 hours before 500 ug LPS; sacrificed 6 hours after LPS
# Description: FIG. 3: Photomicrograph of liver from mice challenged with endotoxin (LPS 500 ug). […] (Immunocytochemical localization using anti-ICAM-1 antibody on frozen tissue).
# FIG. 4: Photomicrograph of liver from mice treated with berberine (10 ug/kg) followed 24 hours later by endotoxin (LPS 500 ug). […] (Immunocytochemical localization using anti-ICAM-1 antibody frozen tissue).
# BALB/C mice were treated with berberine (1, 5, 10 or 20 ug/kg body weight) intraperitoneally and challenged 24 hours later with 500 ug of endotoxin (lipopolysaccharide: LPS); controls without berberine treatment were also given LPS challenge. Animals were sacrificed 6 hours after the LPS challenge and various organs (liver, kidney, lungs) were removed and immediately frozen in liquid nitrogen. Frozen section of these organs were subjected to immunocytochemical localization for ICAM 1 antibodies.
structure (smiles),measurement,setting,value
COc1ccc2cc3[n+](cc2c1OC)CCc1cc2c(cc1-3)OCO2 [berberine],antibody production by B cells,"B cells, T cells",inhibits antibody production by B cells
same,propagation of T cells,"B cells, T cells",no effect on propagation of T cells
same,TNF mediated cytotoxity,"[1]; berberine 100 μg/ml, TNF 100 pg/ml alone showed 66% cytotoxity, 15 hrs incubation",27%
same,protection against TNF mediated killing,"[1]; different doses of berberine with TNF-α, 15 hrs",dose dependent inhibition of cytotoxic effect; also recorded: dose dependent protection
same,maximum inhibition of ICAM-1 expression,[2]; 24 hours of treatment at 100 μg/ml,24 hour pretreatment shows the maximum inhibition of ICAM-1 expression and Treatment with 100 ug/ml berberine shows the maximum inhibition of ICAM-1 expression and maximum inhibition was seen at 24 hours of treatment at 100 μg/ml
same,dose dependence of inhibition of ICAM-1 expression,"[2]; dose response, FIG. 6",dose dependent
same,inhibition of ICAM-1 expression on endothelial cells,"[2]; recombinant TNF-α and IFN-γ stimulation, as early as 6 hours of treatment",inhibited the expression of ICAM-1 on endothelial cells
same,glomerular morphology / surrounding tissue,"[3]; berberine dose of 10-20 mg/kg, endotoxin challenge 24 hours later",surrounding tissue appears normal; also recorded: glomerular morphology was normal
same,attachment of neutrophils to endothelial lining of glomerular capillaries,"[3]; berberine intraperitoneally 24 hours before lethal endotoxin (LPS 500 ug), kidneys 3, 6 and 12 hours after challenge",appear free without attachment to endothelial lining; also recorded: remarkably inhibited the attachment of neutrophils to endothelial lining of the glomerular capillaries
same,"expression of ICAM-1 on vascular endothelium (liver, kidney, lungs)",ICAM-1,lack of expression of ICAM-1 on vascular endothelium; also recorded: inhibited expression of ICAM 1 on the endothelial lining of all organs

# From patent publication US6395772B1, “Method for blocking endothelial cell-leukocyte attachment by inhibiting expression of adhesion molecules on the vascular endothelium for therapeutic applications” (National Institute of Immunology, priority 1996, dated 2002)
